Laboratory results from patent US20260262643A1, “HERBICIDAL BENZOXAZINES” (FMC CORPORATION, priority 2022, published 2026).

What was measured:
blackgrass [1] = assay: Test C preemergence; assay type: in vivo, Alopecurus myosuroides
Summary of the method: (§1)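 Visual injury score, 0–100 (100 = complete control), taken 10 days after treatment relative to untreated controls. Pre: directed spray onto soil over sown seeds. Post: foliar spray at one- to two-leaf stage, 2–10 cm. Solvent/surfactant formulation; loam–sand soil; greenhouse.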

corn [2] = assay: Test C postemergence; assay type: in vivo, Zea mays; conditions: 10 days, 0 to 100 scale (0 no effect, 100 complete control)
Summary of the method: as §1

barnyardgrass [3] = assay: Test C preemergence; assay type: in vivo, Echinochloa crusgalli
Summary of the method: as §1

wheat [4] = assay: Test C preemergence; assay type: in vivo, Triticum aestivum
Summary of the method: as §1

ragweed [5] = assay: Test C preemergence; assay type: in vivo, Ambrosia artemisiifolia
Summary of the method: as §1

ryegrass, Italian [6] = assay: Test C postemergence; assay type: in vivo, Lolium multiflorum; conditions: 10 days, 0 to 100 scale (0 no effect, 100 complete control)
Summary of the method: as §1

pigweed, palmer [7] = assay: Test C postemergence; assay type: in vivo, Amaranthus palmeri; conditions: 10 days, 0 to 100 scale (0 no effect, 100 complete control)
Summary of the method: as §1

corn [8] = assay: Test C preemergence; assay type: in vivo, Zea mays
Summary of the method: as §1

kochia [9] = assay: Test C preemergence; assay type: in vivo, Bassia scoparia
Summary of the method: as §1

oat, wild [10] = assay: Test C postemergence; assay type: in vivo, Avena fatua; conditions: 10 days, 0 to 100 scale (0 no effect, 100 complete control)
Summary of the method: as §1

soybean [11] = assay: Test C postemergence; assay type: in vivo, Glycine max; conditions: 10 days, 0 to 100 scale (0 no effect, 100 complete control)
Summary of the method: as §1

kochia [12] = assay: Test C postemergence; assay type: in vivo, Bassia scoparia; conditions: 10 days, 0 to 100 scale (0 no effect, 100 complete control)
Summary of the method: as §1

oat, wild [13] = assay: Test C preemergence; assay type: in vivo, Avena fatua
Summary of the method: as §1

wheat [14] = assay: Test C postemergence; assay type: in vivo, Triticum aestivum; conditions: 10 days, 0 to 100 scale (0 no effect, 100 complete control)
Summary of the method: as §1

barnyardgrass [15] = assay: Test D flooded paddy test; assay type: in vivo, Echinochloa crus-galli; conditions: 250 g ai/ha, applied to paddy water, visual rating after 13 to 14 days, scale 0 to 100 (0 no effect, 100 complete control)
Summary of the method: (§2)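 At the 2-leaf stage, floodwater 3 cm deep received the test compound; that depth persisted throughout. Plants scored visually 13 to 14 days on, 0 (no effect) to 100 (complete control), dash indicating no result.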

ducksalad = assay: Test D flooded paddy test; assay type: in vivo, Heteranthera limosa; conditions: 250 g ai/ha, applied to paddy water, visual rating after 13 to 14 days, scale 0 to 100 (0 no effect, 100 complete control)
Summary of the method: as §2

blackgrass [16] = assay: Test C postemergence; assay type: in vivo, Alopecurus myosuroides; conditions: 10 days, 0 to 100 scale (0 no effect, 100 complete control)
Summary of the method: as §1

soybean [17] = assay: Test C preemergence; assay type: in vivo, Glycine max
Summary of the method: as §1

barnyardgrass [18] = assay: Test C postemergence; assay type: in vivo, Echinochloa crusgalli; conditions: 10 days, 0 to 100 scale (0 no effect, 100 complete control)
Summary of the method: as §1

foxtail, giant [19] = assay: Test C postemergence; assay type: in vivo, Setaria faberi; conditions: 10 days, 0 to 100 scale (0 no effect, 100 complete control)
Summary of the method: as §1

pigweed, palmer [20] = assay: Test C preemergence; assay type: in vivo, Amaranthus palmeri
Summary of the method: as §1

horseweed = assay: Test C postemergence; assay type: in vivo, Erigeron canadensis; conditions: 10 days, 0 to 100 scale (0 no effect, 100 complete control)
Summary of the method: as §1

sedge, umbrella = assay: Test D flooded paddy test; assay type: in vivo, Cyperus difformis; conditions: 250 g ai/ha, applied to paddy water, visual rating after 13 to 14 days, scale 0 to 100 (0 no effect, 100 complete control)
Summary of the method: as §2

ryegrass, Italian [21] = assay: Test C preemergence; assay type: in vivo, Lolium multiflorum
Summary of the method: as §1

foxtail, giant [22] = assay: Test C preemergence; assay type: in vivo, Setaria faberi
Summary of the method: as §1

rice = assay: Test D flooded paddy test; assay type: in vivo, Oryza sativa; conditions: 250 g ai/ha, applied to paddy water, visual rating after 13 to 14 days, scale 0 to 100 (0 no effect, 100 complete control)
Summary of the method: as §2

ragweed [23] = assay: Test C postemergence; assay type: in vivo, Ambrosia artemisiifolia; conditions: 10 days, 0 to 100 scale (0 no effect, 100 complete control)
Summary of the method: as §1

galium = assay: Test C postemergence; assay type: in vivo, Galium aparine; conditions: 10 days, 0 to 100 scale (0 no effect, 100 complete control)
Summary of the method: as §1

[24] = 500 g ai/ha, preemergence, 0 to 100 scale (0 no effect, 100 complete control)
[25] = Preemergence, 125 g ai/ha, 0 to 100 scale, 0 no effect, 100 complete control

Cc1cccc2c1OC(C(F)(F)F)CN2C(=O)c1ccnc(-n2cnc(C(C)C)n2)c1 (single isomer, unassigned) [Compound 320]
Blackgrass plant response rating (blackgrass [1]; [24]): 60 | Plant response rating, Blackgrass (blackgrass [1]; [25]): 0 | Plant response rating, Corn (corn [2]; 500 g ai/ha, postemergence): 40 | Plant response rating, Corn (corn [2]; Postemergence, 125 g ai/ha): 10 | Barnyardgrass plant response rating (barnyardgrass [3]; [24]): 80 | Plant response rating, Barnyardgrass (barnyardgrass [3]; [25]): 30 | Wheat plant response rating (wheat [4]; [24]): 90 | Plant response rating, Wheat (wheat [4]; [25]): 20 | Ragweed plant response rating (ragweed [5]; [24]): 0 | Plant response rating, Ragweed (ragweed [5]; [25]): 0 | Plant response rating, Ryegrass, Italian (ryegrass, Italian [6]; 500 g ai/ha, postemergence): 30 | Plant response rating, Ryegrass, Italian (ryegrass, Italian [6]; Postemergence, 125 g ai/ha): 20 | Plant response rating, Pigweed, Palmer (pigweed, palmer [7]; 500 g ai/ha, postemergence): 50 | Plant response rating, Pigweed, Palmer (pigweed, palmer [7]; Postemergence, 125 g ai/ha): 0 | Corn plant response rating (corn [8]; [24]): 30 | Plant response rating, Corn (corn [8]; [25]): 30 | Kochia plant response rating (kochia [9]; [24]): 10 | Plant response rating, Kochia (kochia [9]; [25]): 10 | Plant response rating, Oat, Wild (oat, wild [10]; 500 g ai/ha, postemergence): 10 | Plant response rating, Oat, Wild (oat, wild [10]; Postemergence, 125 g ai/ha): 10 | Plant response rating, Soybean (soybean [11]; 500 g ai/ha, postemergence): 100 | Plant response rating, Soybean (soybean [11]; Postemergence, 125 g ai/ha): 50 | Plant response rating, Kochia (kochia [12]; 500 g ai/ha, postemergence): 80 | Plant response rating, Kochia (kochia [12]; Postemergence, 125 g ai/ha): 40 | Oat, Wild plant response rating (oat, wild [13]; [24]): 40 | Plant response rating, Oat, Wild (oat, wild [13]; [25]): 10 | Plant response rating, Wheat (wheat [14]; 500 g ai/ha, postemergence): 30 | Plant response rating, Wheat (wheat [14]; Postemergence, 125 g ai/ha): 10 | Plant response rating, Barnyardgrass (Flood) (barnyardgrass [15]): 0 | Plant response rating, Ducksalad (Flood) (ducksalad): 0 | Plant response rating, Blackgrass (blackgrass [16]; 500 g ai/ha, postemergence): 10 | Plant response rating, Blackgrass (blackgrass [16]; Postemergence, 125 g ai/ha): 0 | Soybean plant response rating (soybean [17]; [24]): 100 | Plant response rating, Soybean (soybean [17]; [25]): 10 | Plant response rating, Barnyardgrass (barnyardgrass [18]; 500 g ai/ha, postemergence): 20 | Plant response rating, Barnyardgrass (barnyardgrass [18]; Postemergence, 125 g ai/ha): 0 | Plant response rating, Foxtail, Giant (foxtail, giant [19]; 500 g ai/ha, postemergence): 40 | Plant response rating, Foxtail, Giant (foxtail, giant [19]; Postemergence, 125 g ai/ha): 20 | Pigweed, Palmer plant response rating (pigweed, palmer [20]; [24]): 100 | Plant response rating, Pigweed, Palmer (pigweed, palmer [20]; [25]): 20 | Plant response rating, Horseweed (horseweed; 500 g ai/ha, postemergence): 40 | Plant response rating, Horseweed (horseweed; Postemergence, 125 g ai/ha): 10 | Plant response rating, Sedge, Umbrella (Flood) (sedge, umbrella): 0 | Ryegrass, Italian plant response rating (ryegrass, Italian [21]; [24]): 90 | Plant response rating, Ryegrass, Italian (ryegrass, Italian [21]; [25]): 80 | Foxtail, Giant plant response rating (foxtail, giant [22]; [24]): 90 | Plant response rating, Foxtail, Giant (foxtail, giant [22]; [25]): 20 | Plant response rating, Rice (Flood) (rice): 0 | Plant response rating, Ragweed (ragweed [23]; 500 g ai/ha, postemergence): 50 | Plant response rating, Ragweed (ragweed [23]; Postemergence, 125 g ai/ha): 0 | Plant response rating, Galium (galium; 500 g ai/ha, postemergence): 70 | Plant response rating, Galium (galium; Postemergence, 125 g ai/ha): 50
